Measured values from patent US20250304563A1, “ACTIVATORS OF EFFECTOR T CELLS” (Orum Therapeutics, Inc., priority 2022, published 2025).

Biological target: Cbl-b (36-427 aa truncated form, N-terminus Avi-tag) (Homo sapiens (Human), UniProt Q13191)
Assay: Cbl-b binding: TR-FRET displacement of BODIPY-FL probe
Description: Compounds were assessed for binding activity to Cbl-b by their ability to compete with and displace a probe comprised of BODIPY-FL fluorophore conjugated to a Cbl-b inhibitor (see Example 54 in WO2020264398). In the assay, a 36-427 aa truncated form of Cbl-b with an N-terminus Avi-tag was incubated 20 mM HEPES pH 7.5, 150 mM NaCl, 0.01% Triton X-100, 0.1% BSA, 0.5 mM TCEP buffer with streptavidin-terbium (Cisbio). After one hour of incubation at room temperature, 1 uM each of fluorescent probe and compound were combined with the reaction mixture. Compounds with Cbl-b binding activity competitively displace the fluorophore tagged inhibitor thereby disrupting the FRET signal from the terbium-BODIPY-FL complex. The reaction mixtures were incubated for one additional hour at room temperature to allow for competition between inhibitor and candidate compounds to occur. The time resolved FRET (TR-FRET) signal was then read at 520/620 […] (excitation/emission) using a Spectramax M5e plate reader (Molecular Devices) to measure probe displacement. Compounds with Cbl-b binding activity had decreased FRET signal owing to disruption of the terbium-BODIPY-FL FRET complex. Standard methods in PRISM were used to calculate the compound IC50 values from the experimental data.

Chain of Cbl-b (36-427 aa truncated form, N-terminus Avi-tag) (Q13191 36-427): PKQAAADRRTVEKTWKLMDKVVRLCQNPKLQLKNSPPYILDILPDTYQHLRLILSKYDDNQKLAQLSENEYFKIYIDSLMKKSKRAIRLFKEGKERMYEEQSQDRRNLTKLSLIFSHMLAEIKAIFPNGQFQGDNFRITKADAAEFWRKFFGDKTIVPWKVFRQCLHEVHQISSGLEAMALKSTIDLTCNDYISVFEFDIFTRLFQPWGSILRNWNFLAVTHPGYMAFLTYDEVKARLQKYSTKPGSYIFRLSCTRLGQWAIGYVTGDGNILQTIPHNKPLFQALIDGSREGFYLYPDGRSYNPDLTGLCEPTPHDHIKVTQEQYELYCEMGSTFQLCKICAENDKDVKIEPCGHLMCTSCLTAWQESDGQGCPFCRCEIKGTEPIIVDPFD

Row | Structure (SMILES) | IC50 [nM]
1 | Cn1cnnc1CC1(c2cc(NCCC#N)nc(N3Cc4c(cc(C=O)cc4C(F)(F)F)C3=O)c2)COC1 [Compound 157, 3-({6-[6-formyl-1-oxo-4-(trifluoromethyl)-3H-isoindol-2-yl]-4-{3-[(4-methyl-1,2,4-triazol-3-yl)methyl]oxetan-3-yl}pyridin-2-yl}amino)propanenitrile] | 20 to 100
2 | CSc1cc(CN2CCC[C@H](C)C2)cc2c1CN(c1cc(C3(Cc4nncn4C)COC3)cc(NCCN=[N+]=[N-])n1)C2=O [Compound 158, 2-{6-[(2-azidoethyl)amino]-4-{3-[(4-methyl-1,2,4-triazol-3-yl)methyl]oxetan-3-yl}pyridin-2-yl}-6-{[(3S)-3-methylpiperidin-1-yl]methyl}-4-(methylsulfanyl)-3H-isoindol-1-one; trifluoroacetic acid] | 1 to 5
3 | CCSc1cc(C2(Cc3nncn3C)COC2)cc(N2Cc3c(C(C)=O)cc(CN4CCC[C@H](C)C4)cc3C2=O)n1 [Compound 159, 4-acetyl-2-[6-(ethylsulfanyl)-4-{3-[(4-methyl-1,2,4-triazol-3-yl)methyl]oxetan-3-yl}pyridin-2-yl]-6-{[(3S)-3-methylpiperidin-1-yl]methyl}-3H-isoindol-1-one; trifluoroacetic acid] | 20 to 100
4 | Cn1cnnc1CC1(c2cc(NCCC#N)nc(N3Cc4c(cc(CN5CCC6(CC5)CC6CO)cc4C(F)(F)F)C3=O)c2)COC1 (stereo not shown) [Compound 160, 3-{[6-(6-{[1-(hydroxymethyl)-6-azaspiro[2.5]octan-6-yl]methyl}-1-oxo-4-(trifluoromethyl)-3H-isoindol-2-yl)-4-{3-[(4-methyl-1,2,4-triazol-3-yl)methyl]oxetan-3-yl}pyridin-2-yl]amino}propanenitrile] | 1 to 5
5 | Cn1cnnc1CC1(c2cc(NCCC#N)nc(N3Cc4c(cc(CN5C[C@H]6CCC(O)C[C@H]6C5)cc4C(F)(F)F)C3=O)c2)COC1 (stereo partly drawn) [Compound 161, 3-{[6-(6-{[(3aR,7aS)-5-hydroxy-octahydroisoindol-2-yl]methyl}-1-oxo-4-(trifluoromethyl)-3H-isoindol-2-yl)-4-{3-[(4-methyl-1,2,4-triazol-3-yl)methyl]oxetan-3-yl}pyridin-2-yl]amino}propanenitrile; trifluoroacetic acid] | 1 to 5
6 | CN1CCOC2(CCN(Cc3cc4c(c(C(F)(F)F)c3)CN(c3cc(C5(Cc6nncn6C)COC5)cc(NCCC#N)n3)C4=O)C2)C1 (stereo not shown) [Compound 163, 3-[(4-{3-[(4-methyl-1,2,4-triazol-3-yl)methyl]oxetan-3-yl}-6-[6-({9-methyl-6-oxa-2,9-diazaspiro[4.5]decan-2-yl}methyl)-1-oxo-4-(trifluoromethyl)-3H-isoindol-2-yl]pyridin-2-yl)amino]propanenitrile] | 5.01 to 20
7 | Cn1cnnc1CC1(c2cc(NCCC#N)nc(N3Cc4c(cc(CN5CC[C@@H](CN6CCOCC6)C5)cc4C(F)(F)F)C3=O)c2)COC1 [Compound 165, 3-[(4-{3-[(4-methyl-1,2,4-triazol-3-yl)methyl]oxetan-3-yl}-6-(6-{[(3R)-3-(morpholin-4-ylmethyl)pyrrolidin-1-yl]methyl}-1-oxo-4-(trifluoromethyl)-3H-isoindol-2-yl)pyridin-2-yl)amino]propanenitrile; trifluoroacetic acid] | 5.01 to 20
8 | CCSc1cc(C2(Cc3nncn3C)COC2)cc(N2Cc3c(C(=O)O)cc(CN4CCC[C@H](C)C4)cc3C2=O)n1 [Compound 166, 2-[6-(ethylsulfanyl)-4-{3-[(4-methyl-1,2,4-triazol-3-yl)methyl]oxetan-3-yl}pyridin-2-yl]-6-{[(3S)-3-methylpiperidin-1-yl]methyl}-1-oxo-3H-isoindole-4-carboxylic acid; trifluoroacetic acid] | 5.01 to 20
9 | CCSc1cc(C2(Cc3nncn3C)COC2)cc(N2Cc3c(cc(CN4CCC[C@H](C)C4)cc3-c3nnn[nH]3)C2=O)n1 [Compound 167, 2-[6-(ethylsulfanyl)-4-{3-[(4-methyl-1,2,4-triazol-3-yl)methyl]oxetan-3-yl}pyridin-2-yl]-6-{[(3S)-3-methylpiperidin-1-yl]methyl}-4-(1H-1,2,3,4-tetrazol-5-yl)-3H-isoindol-1-one] | 5.01 to 20
10 | CC1CC(c2cc(NCCN=[N+]=[N-])nc(N3Cc4c(cc(CN5CCC[C@H](C)C5)cc4C(F)(F)F)C3=O)c2)(c2nncn2C)C1 (stereo partly drawn) [Compound 168, 2-{6-[(2-azidoethyl)amino]-4-[(1r,3s)-3-methyl-1-(4-methyl-1,2,4-triazol-3-yl)cyclobutyl]pyridin-2-yl}-6-{[(3S)-3-methylpiperidin-1-yl]methyl}-4-(trifluoromethyl)-3H-isoindol-1-one] | 20 to 100
11 | CCNc1cc([C@]2(c3nncn3C)C[C@H](C)C2)cc(N2Cc3c(cc(CN4CCC[C@H](C)C4)cc3S(C)(=O)=O)C2=O)n1 [Compound 172, 2-[6-(ethylamino)-4-[(1r,3s)-3-methyl-1-(4-methyl-1,2,4-triazol-3-yl)cyclobutyl]pyridin-2-yl]-4-methanesulfonyl-6-{[(3S)-3-methylpiperidin-1-yl]methyl}-3H-isoindol-1-one; trifluoroacetic acid] | 100 to 1000
12 | C[C@H]1CCCN(Cc2cc(C=O)c3c(c2)C(=O)N(c2cc(C4(Cc5nncn5C)COC4)cc(NCCC#N)n2)C3)C1 [Compound 177, 3-{[6-(4-formyl-6-{[(3S)-3-methylpiperidin-1-yl]methyl}-1-oxo-3H-isoindol-2-yl)-4-{3-[(4-methyl-1,2,4-triazol-3-yl)methyl]oxetan-3-yl}pyridin-2-yl]amino}propanenitrile] | 1 to 5
13 | CCNc1cc(C2(c3nncn3C)CC(C)C2)cc(N2Cc3c(cc(CN4CCC[C@H](C)C4)cc3[S+](C)[O-])C2=O)n1 (stereo partly drawn) [Compound 178, 2-[6-(ethylamino)-4-[(1r,3s)-3-methyl-1-(4-methyl-1,2,4-triazol-3-yl)cyclobutyl]pyridin-2-yl]-4-methanesulfinyl-6-{[(3S)-3-methylpiperidin-1-yl]methyl}-3H-isoindol-1-one] | 100 to 1000
14 | CCNc1cc(C2(Cc3nncn3C)COC2)cc(N2Cc3c(cc(CN4CCC[C@H](C)C4)cc3S(C)(=O)=O)C2=O)n1 [Compound 179, 2-[6-(ethylamino)-4-{3-[(4-methyl-1,2,4-triazol-3-yl)methyl]oxetan-3-yl}pyridin-2-yl]-4-methanesulfonyl-6-{[(3S)-3-methylpiperidin-1-yl]methyl}-3H-isoindol-1-one; formic acid] | 100 to 1000
15 | CCNc1cc(C2(Cc3nncn3C)COC2)cc(N2Cc3c(cc(CN4CCC[C@H](C)C4)cc3[S+](C)[O-])C2=O)n1 (stereo partly drawn) [Compound 180, 2-[6-(ethylamino)-4-{3-[(4-methyl-1,2,4-triazol-3-yl)methyl]oxetan-3-yl}pyridin-2-yl]-4-methanesulfinyl-6-{[(3S)-3-methylpiperidin-1-yl]methyl}-3H-isoindol-1-one] | 100 to 1000
16 | Cn1cnnc1CC1(c2cc(NCCC#N)nc(N3Cc4c(cc(CN5CCC6CC(O)CCC6C5)cc4C(F)(F)F)C3=O)c2)COC1 (stereo not shown) [Compound 183, 3-((6-(6-((6-hydroxyoctahydroisoquinolin-2 (1H)-yl)methyl)-1-oxo-4-(trifluoromethyl)isoindolin-2-yl)-4-(3-((4-methyl-4H-1,2,4-triazol-3-yl)methyl)oxetan-3-yl)pyridin-2-yl)amino)propanenitrile; trifluoroacetic acid] | 100 to 1000
